IC50 data for eleven compounds are collected here from patent publication US6040305A, “Compounds useful for inhibition of farnesyl protein transferase” (Schering Corporation, priority 1997, dated 2000).

Like-named read-outs stand apart in the source and are kept apart here. Where only a bound is given, the exact number is not on record here.

The target in experiment [1] is T1, farnesyl protein transferase (Homo sapiens, UniProt P49354+P49356). The experiment in a line: FPT IC50, inhibition of farnesyl protein transferase (K-ras). It is filed as biochemical. Here is the method:
(§1) FPT IC50 (inhibition of farnesyl protein transferase, in vitro enzyme assay) and COS Cell IC50 (Cell-Based Assay) were determined following the assay procedures described in WO 95110516, published Apr. 20, 1995. GGPT IC50 (inhibition of geranylgeranyl protein transferase, in vitro enzyme assay), Cell Mat Assay, and anti-tumor activity (in vivo anti-tumor studies) could be determined by the assay procedures described in WO 95/10516. The disclosure of WO 95/10516 is incorporated herein by reference thereto.

The next experiment has as its system Human tumor cells. The experiment in a line: Soft Agar Assay (anchorage-independent growth). The class given is cell-based. To be noted: 10-16 days at 37° C., 5% CO2, MTT staining, read-out: Soft Agar FPT IC50. The protocol:
Anchorage-independent growth is a characteristic of tumorigenic cell lines. Human tumor cells are suspended in growth medium containing 0.3% agarose and an indicated concentration of a farnesyl transferase inhibitor. The solution is overlayed onto growth medium solidified with 0.6% agarose containing the same concentration of farnesyl transferase inhibitor as the top layer. After the top layer is solidified, plates are incubated for 10-16 days at 37° C. under 5% CO2 to allow colony outgrowth. After incubation, the colonies are stained by overlaying the agar with a solution of MTT (3-[4,5-dimethyl-thiazol-2-yl]-2,5-diphenyltetrazolium bromide, Thiazolyl blue) (1 mg/mL in PBS). Colonies can be counted and the IC50 's can be determined.

The target in experiment [2] is T1, farnesyl protein transferase. Briefly: FPT IC50, inhibition of farnesyl protein transferase, in vitro enzyme assay (H-ras). The class given is biochemical. Here is the method:
as §1

The subject of the next experiment is COS Cell. The experiment in a line: COS Cell IC50 (Cell-Based Assay). The protocol:
as §1

With `NC(=O)CN1CCC(CC(=O)N2CCC([C@H]3c4ncc(Br)cc4CCc4cc(Cl)cc(Br)c43)CC2)CC1` [Compound 2.0], the 50% inhibitory concentration (IC50) came to 8.6 nM in experiment [1], 70 nM in the experiment on Human tumor cells, 1.8 nM in experiment [2] and 6 nM with COS Cell.
For `CON(C)C(=O)CN1CCC(CC(=O)N2CCC([C@H]3c4ncc(Br)cc4CCc4cc(Cl)cc(Br)c43)CC2)CC1` [Compound 3.0] the same measures were 26 nM, 175 nM, 3.9 nM and 20 nM.
Take `CCN(CC)C(=O)CN1CCC(CC(=O)N2CCC([C@H]3c4ncc(Br)cc4CCc4cc(Cl)cc(Br)c43)CC2)CC1` [Compound 4.0]: the 50% inhibitory concentration (IC50) was found to be 46 nM in experiment [1], 300 nM with Human tumor cells, 4.3 nM in experiment [2] and 40 nM with COS Cell.
Consider `O=C(CN1CCC(CC(=O)N2CCC([C@H]3c4ncc(Br)cc4CCc4cc(Cl)cc(Br)c43)CC2)CC1)NCc1ccccc1` [Compound 5.0], for which the half-maximal inhibitory concentration (IC50) worked out at 51.9 nM in experiment [1], 16 nM in experiment [2] and 840 nM in the experiment with COS Cell.
In the case of `O=C(CN1CCC(CC(=O)N2CCC([C@H]3c4ncc(Br)cc4CCc4cc(Cl)cc(Br)c43)CC2)CC1)N[C@@H]1O[C@H](CO)[C@H](O)[C@H](O)[C@H]1O` [Compound 6.0], the IC50 in experiment [1] is 17 nM; with Human tumor cells (value given in M), more than 500 nM; in experiment [2], 3.4 nM; with COS Cell, 300 nM.
In the case of `O=C(CC1CCN(CC(=O)N2CCOCC2)CC1)N1CCC([C@H]2c3ncc(Br)cc3CCc3cc(Cl)cc(Br)c32)CC1` [Compound 7.0], the IC50 in experiment [1] turned out to be 20 nM; in the experiment on Human tumor cells it was 100 nM; in experiment [2] it was 5 nM; with COS Cell it was 25 nM.
`CC(C)(C)OC(=O)N1CCN(C(=O)CN2CCC(CC(=O)N3CCC([C@H]4c5ncc(Br)cc5CCc5cc(Cl)cc(Br)c54)CC3)CC2)CC1` [Compound 8.0]: the concentration for half-maximal inhibition (IC50) was 42 nM in experiment [1], more than 500 nM in the experiment on Human tumor cells, 18 nM in experiment [2] and 22 nM with COS Cell.
In the case of `O=C(CC1CCN(CC(=O)N2CCNCC2)CC1)N1CCC([C@H]2c3ncc(Br)cc3CCc3cc(Cl)cc(Br)c32)CC1` [Compound 9.0], the IC50 in experiment [1] was 17 nM; in the experiment with Human tumor cells, 500 nM; in experiment [2], 4.3 nM; with COS Cell, 120 nM.
For the compound `O=C(CC1CCN(CC(=O)N2CCc3ccccc32)CC1)N1CCC([C@H]2c3ncc(Br)cc3CCc3cc(Cl)cc(Br)c32)CC1` [Compound 10.0], the IC50 in experiment [2] is 5.4 nM; in the experiment with COS Cell, 100 nM.
Compound `CC(C)(C)OC(=O)CN1CCC(CC(=O)N2CCC([C@H]3c4ncc(Br)cc4CCc4cc(Cl)cc(Br)c43)CC2)CC1` [Compound 11.0] displayed a half-inhibitory concentration (IC50) in experiment [2] of 28 nM.
`O=C(CC1CCN(CC(O)CO)CC1)N1CCC([C@H]2c3ncc(Br)cc3CCc3cc(Cl)cc(Br)c32)CC1` (stereo partly shown) [Compound 20.0]: the half-inhibitory concentration (IC50) with Human tumor cells was 60 nM; in experiment [2], 2 nM; with COS Cell it was less than 10 nM.
